Columns and labels:
Test in all cases: relative viability (nuclei count vs DMSO), 5 days (fraction); higher = more cells survive
Alpelisib + Linsitinib = compound: Cc1nc(NC(=O)N2CCC[C@H]2C(N)=O)sc1-c1ccnc(C(C)(C)C(F)(F)F)c1 [Alpelisib] + C[C@]1(O)C[C@@H](c2nc(-c3ccc4ccc(-c5ccccc5)nc4c3)c3c(N)nccn32)C1 [Linsitinib] (partner 1 µM)
Procedure, shortened: (§1)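 Relative viability divides the nuclei count in treated wells by that in vehicle wells. Lung cancer cell lines were seeded in 1536-well plates, dosed by pin tool the next day, and fixed and stained after 5 days in one step with final 0.05% Triton X-100, 1% formaldehyde and 1 ug/ml Hoechst. Dosing was a single drug or a fixed anchor-drug dose plus five library-drug doses (not always all listed) in √10 steps, and values are medians of duplicate plates imaged at 4×.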

Vemurafenib + Pemetrexed = compound: CCCS(=O)(=O)Nc1ccc(F)c(C(=O)c2c[nH]c3ncc(-c4ccc(Cl)cc4)cc23)c1F [Vemurafenib] + Nc1nc2[nH]cc(CCc3ccc(C(=O)N[C@@H](CCC(=O)O)C(=O)O)cc3)c2c(=O)[nH]1 [Pemetrexed] (partner 0.2 µM)
Procedure, shortened: as §1

OSI-027 + Alpelisib = compound: COc1cccc2cc(-c3nc([C@H]4CC[C@H](C(=O)O)CC4)n4ncnc(N)c34)[nH]c12 [OSI-027] + Cc1nc(NC(=O)N2CCC[C@H]2C(N)=O)sc1-c1ccnc(C(C)(C)C(F)(F)F)c1 [Alpelisib] (partner 2 µM)
Procedure, shortened: as §1

OSI-027 + Lapatinib = compound: COc1cccc2cc(-c3nc([C@H]4CC[C@H](C(=O)O)CC4)n4ncnc(N)c34)[nH]c12 [OSI-027] + CS(=O)(=O)CCNCc1ccc(-c2ccc3ncnc(Nc4ccc(OCc5cccc(F)c5)c(Cl)c4)c3c2)o1 [Lapatinib] (partner 2 µM)
Procedure, shortened: as §1

Cell Line | relative viability (Alpelisib + Linsitinib; first compound 0.04 µM) | relative viability (Alpelisib + Linsitinib; first compound 0.1265 µM) | relative viability (Alpelisib + Linsitinib; first compound 0.4 µM) | relative viability (Alpelisib + Linsitinib; first compound 1.265 µM) | relative viability (Alpelisib + Linsitinib; first compound 4 µM) | relative viability (Vemurafenib + Pemetrexed; first compound 0.03162 µM) | relative viability (Vemurafenib + Pemetrexed; first compound 0.1 µM) | relative viability (Vemurafenib + Pemetrexed; first compound 0.3162 µM) | relative viability (Vemurafenib + Pemetrexed; first compound 1 µM) | relative viability (OSI-027 + Alpelisib; first compound 0.01 µM) | relative viability (OSI-027 + Alpelisib; first compound 0.03162 µM) | relative viability (OSI-027 + Alpelisib; first compound 0.1 µM) | relative viability (OSI-027 + Alpelisib; first compound 0.3162 µM) | relative viability (OSI-027 + Alpelisib; first compound 1 µM) | relative viability (OSI-027 + Lapatinib; first compound 0.01 µM) | relative viability (OSI-027 + Lapatinib; first compound 0.03162 µM) | relative viability (OSI-027 + Lapatinib; first compound 0.1 µM) | relative viability (OSI-027 + Lapatinib; first compound 0.3162 µM) | relative viability (OSI-027 + Lapatinib; first compound 1 µM)
LXF-289 | 0.935 | 0.952 | 1.05 | 0.952 | 0.996 | 0.871 | 0.868 | 0.903 | 0.635 | 1.05 | 1.05 | 0.991 | 0.909 | 0.496 | 0.99 | 0.885 | 0.926 | 0.9 | 0.74
NCI-H23 | 0.527 | 0.576 | 0.672 | 0.524 | 0.513 | 0.564 | 0.772 | 0.622 | 0.727 | 0.594 | 0.54 | 0.632 | 0.481 | 0.295 | 1.07 | 1.13 | 1.06 | 0.618 | 0.291
NCI-H322M | 0.914 | 0.953 | 0.868 | 0.836 | 0.75 | 0.587 | – | 0.597 | 0.537 | 0.0629 | 0.772 | 0.775 | 0.539 | 0.521 | 0.578 | 0.651 | 0.543 | 0.57 | 0.559
NCI-H358 | 0.683 | 0.657 | 0.605 | 0.334 | 0.397 | 0.208 | 0.179 | 0.189 | 0.193 | 0.98 | 0.774 | 0.757 | 0.478 | 0.297 | 0.444 | 0.475 | 0.394 | 0.389 | 0.309
NCI-H460 | 0.716 | 0.722 | 0.516 | 0.261 | 0.284 | 0.0604 | 0.058 | 0.065 | 0.0749 | 0.541 | 0.404 | 0.314 | 0.168 | 0.119 | 1.11 | 0.716 | 0.814 | 0.536 | 0.102
NCI-H520 | 1.01 | 1.04 | 1.01 | 1.02 | 0.723 | 0.689 | 0.643 | 0.532 | 0.608 | 1.11 | 0.833 | 0.701 | 0.41 | 0.205 | 0.832 | 0.835 | 0.666 | 0.408 | 0.235
NCI-H596 | 1.05 | 1.03 | 0.867 | 0.555 | 0.477 | 0.501 | 0.494 | 0.405 | 0.583 | 0.432 | 0.534 | 0.503 | 0.503 | 0.354 | 1.05 | 1.19 | 0.934 | 0.742 | 0.832
NCI-H647 | 1.01 | 1.29 | 1.13 | 1.12 | 1.12 | 0.164 | 0.174 | 0.169 | 0.198 | 1.15 | 1.26 | 0.914 | 0.699 | 0.376 | 1.11 | 1.02 | 1.17 | 0.843 | 0.443
NCI-H650 | 0.819 | 0.706 | 0.894 | 0.587 | 0.807 | 0.909 | 0.913 | 0.551 | 0.702 | 1.05 | 1.1 | 0.749 | 0.679 | 0.389 | 0.838 | 0.883 | 0.516 | 0.707 | 0.39
NCI-H661 | 0.58 | 0.573 | 0.613 | 0.439 | 0.458 | 1.01 | 0.929 | 0.978 | 0.929 | 0.482 | 0.671 | 0.41 | 0.5 | 0.33 | 0.509 | 0.519 | 0.453 | 0.334 | 0.279
NCI-H838 | 0.969 | 1.02 | 0.983 | 0.807 | 0.956 | 0.252 | 0.235 | 0.338 | 0.272 | 0.996 | 0.847 | 0.632 | 0.498 | 0.275 | 0.937 | 0.975 | 0.868 | 0.584 | 0.377
NCI-H1355 | 0.762 | 0.837 | 0.828 | 0.774 | 0.722 | 1.03 | 0.961 | 1.02 | 1.04 | 0.764 | 0.723 | 0.677 | 0.345 | 0.24 | 1.13 | 0.957 | 0.873 | 0.561 | 0.363
NCI-H1395 | 1.12 | 1.17 | 1.42 | 0.82 | 1.18 | 0.679 | 0.744 | 0.757 | 0.814 | 1.04 | 1.14 | 0.974 | 0.93 | 0.757 | 0.854 | 0.98 | 0.829 | 0.701 | 0.735
NCI-H1437 | 1.06 | 1.02 | 1.05 | 0.827 | 0.844 | 0.327 | 0.294 | 0.312 | 0.32 | 1 | 0.676 | 0.895 | 0.521 | 0.272 | 0.807 | 0.756 | 0.807 | 0.69 | 0.312
NCI-H1563 | 1.18 | 1.19 | 1.2 | 1.06 | 1.19 | 0.708 | 0.627 | 0.681 | 0.65 | 0.983 | 0.888 | 0.82 | 0.673 | 0.759 | 0.846 | 1.05 | 0.745 | 0.757 | 0.775
NCI-H1651 | 0.953 | 0.932 | 0.963 | 0.932 | 0.956 | 0.555 | 0.626 | 0.508 | 0.579 | 1.1 | – | 0.882 | 0.713 | 0.559 | 0.842 | – | 0.728 | 0.725 | 0.371
NCI-H1666 | 0.805 | 0.705 | 0.772 | 1.01 | 0.793 | 0.805 | 0.847 | 0.913 | 0.843 | 0.869 | 1.02 | 0.658 | 0.43 | 0.488 | 0.521 | 0.709 | 0.554 | 0.33 | 0.27
